Assays:
[1] = test system: infra-renal abdominal aorta; assay: Morphological analysis of intima/media ratios 28 days after in vivo stent implantation; parameters: species or system New Zealand White rabbits; details: 28 days after stent implantation, stent-based local release from microspheres, 0.25% cholesterol diet
Experimental: Microsphere Preparation. Biodegradable poly(lactic-co-glycolic-acid)-polyethylene glycol (PLGA/PEG) microspheres were prepared as a modification of previously described techniques. […] Additionally, a pH buffer of 7.4 was incorporated to limit local pH changes in order to stabilize incorporated drugs and render the microspheres more biocompatible. During the microsphere manufacturing process, 2.0 mg of the angiogenesis inhibitor angiostatin (Calbiochem, La Jolla, Calif.) in […] phosphate buffered saline was added to the polymer solution. Control microspheres (blank microspheres) containing polymer and buffer without any drug were also prepared. Stents were prepared as above. In Vivo Stent Implantation. Age-matched adult male New Zealand White rabbits weighing 3.8–4.2 kg were used in accordance to NIH and institutional guidelines (n=6 animals per group). Under general anesthesia, an arteriotomy at the femoral artery was performed and a 5 Fr introducing sheath was placed. Under fluoroscopic guidance, aseptically prepared channeled stents filled with blank or angiostatin microspheres were deployed in the infra-renal abdominal aorta. Stents were post-dilated at 8 atm with a 5 mm angioplasty balloon (Jupiter, Cordis, Miami, Fla.) to a final lumen size of 125% above the baseline with care taken to ensure that […] were present within the stent segment. Pre- and post-deployment digital subtraction angiograms were recorded for the blank procedural control and angiostatin treatment groups. The rabbits were fed a 0.25% cholesterol diet after the intervention. Early 7 day follow up (n=3 per group) or late 28 day follow-up (n=3 per group) animals underwent total-body perfusion-fixation as previously described with immediate excision of the aortic segment containing stent. The 7 day aortic specimens were excised longitudinally and stents were removed. The resulting aortic segments were divided into two equal subsegments. One subsegment of each underwent fixation in 10% neutral buffered formalin and embedded in paraffin-for light microscopic and morphologic analysis. The remaining subsegment of each specimen was snap frozen for molecular assay. The 28 days aortic specimens were fixed in 10% neutral buffered formalin and were embedded in PolyBed (Polysciences, Warrington, Pa.) for light microscopic and morphologic analysis. Morphological Analysis of Intima/Media (I/M) Ratios. The seven day analysis consisted of thick (5 μm) cross sections of the aortic wall were obtained from the paraffin-embedded specimens (n=9 sections per group). An elastic von Gieson-Masson trichrome or Elastica van Gieson-Hematoxylin double stain was performed for light microscopic analysis. For the 28 day specimen analysis (n=3 animals per group), each plastic-embedded aorta with stents was cut into five pieces longitudinally equal lengths. These pieces were stained by modified Verhoff elastic staining. Five cross sectional images of the stained aorta were obtained (n=15 sections per group) from one side of plastic pieces. […] Using Image Pro Plus software (Media Cybernetics, Silver Spring, Md.), the cross-sectional area of the intima and the media were determined by blinded observers. The ratio of intima area to media area subsequently tabulated for each, with the results presented as Table 2. Mean, standard error, and significance were determined.

[2] = test system: infra-renal abdominal aorta; assay: Local plaque stability parameters: macrophage infiltrate and endothelial density (CD31); format: in vivo, New Zealand White rabbits; details: 7 days after stent implantation
Experimental: In Vivo Stent Implantation. Age-matched adult male New Zealand White rabbits weighing 3.8–4.2 kg were used in accordance to NIH and institutional guidelines (n=6 animals per group). Under general anesthesia, an arteriotomy at the femoral artery was performed and a 5 Fr introducing sheath was placed. Under fluoroscopic guidance, aseptically prepared channeled stents filled with blank or angiostatin microspheres were deployed in the infra-renal abdominal aorta. Stents were post-dilated at 8 atm with a 5 mm angioplasty balloon (Jupiter, Cordis, Miami, Fla.) to a final lumen size of 125% above the baseline with care taken to ensure that […] were present within the stent segment. Pre- and post-deployment digital subtraction angiograms were recorded for the blank procedural control and angiostatin treatment groups. […]
Evaluation of Local Plaque Stability Parameters: Macrophage Infiltrate and Endothelial Density. Cross sections at the 7 day time point evaluated above were obtained (two per segment) from each vessel and incubated with a primary monoclonal antibody to rabbit macrophage (clone RAM-11, 1/800 dilution, DAKO, Carpinteria, Calif.). The number of positive cells per cross section was counted by a blinded observer. […] Mean and standard error were tabulated for each group with significance determined as before and p values as reported.

Molecule | Intima to media ratio (ratio of intimal area to medial area, mean ± SE) [1] | Number of plaque microvessels (CD31) per cross section (mean ± SE) [2] | Number of cross-sectional macrophages (mean ± SE) ([2]; RAM-11 positive cells per cross section)
CN1CCC[C@H]1c1cccnc1 [Nicotine, S-3-(1-methyl-2-pyrrolidinyl)pyridine, reference compound] | 1.377 ± 0.060 |  | 
TGFβ1: transforming growth factor β1 (Oncogene Research) | 1.803 ± 0.053 |  | 
CCNCCN(CC)N(O)N=O [NO, N-Ethyl-2-(1-ethyl-2-hydroxy-2-nitrosohydrazino) ethanamine, reference compound] | 1.338 ± 0.051 |  | 
CCC[C@H](N[C@@H](C)C(=O)N1[C@H](C(=O)O)C[C@@H]2CCCC[C@@H]21)C(=O)O [ATIIr, perindoprilate, reference compound] | 1.730 ± 0.090 |  | 
AAT: elastase inhibitor alpha-1-antitrypsin (Calbiochem) | 1.322 ± 0.060 |  | 
FGF: acidic FGF (Calbiochem) loaded with endotoxin-free heparin as a stabilizer | 1.634 ± 0.051 |  | 
Angiostatin | 1.610 ± 0.050 | 0.111 ± 0.111 | 34.889 ± 3.948 P = 0.0011
Fas ligand: pro-apoptotic factor, death domain receptor ligand (Oncogene Research) (protein, UniProt P48023 130-281, looked up) Tumor necrosis factor ligand …: QIGHPSPPPEKKELRKVAHLTGKSNSRSMPLEWEDTYGIVLLSGVKYKKGGLVINETGLYFVYSKVYFRGQSCNNLPLSHKVYMRNSKYPQDLVMMEGKMMSYCTTGQMWARSSYLGAVFNLTSADHLYVNVSELSLVNFEESQTFFGLYKL | 1.356 ± 0.053 |  | 

From patent US7048939B2, “Methods for the inhibition of neointima formation” (The Board of Trustees of the Leland Stanford Junior …, priority 2001, dated 2006)
